Values quoted from earlier work as cited in patent publication US20250339568A1, “PRECURSOR AND RADIOTRACER FOR NEUROENDOCRINE THERANOSTICS” (ITM Oncologics GmbH, priority 2021, published 2025).

Target: T1, HEK293-SSR2 tumour cells (Homo sapiens, UniProt P30874)
T1 construct: host or cells: HEK293-SSR2 tumour cells
Conditions: reference example of EP 2 801 582 A1, Table 12

T1 sequence (P30874 whole entry): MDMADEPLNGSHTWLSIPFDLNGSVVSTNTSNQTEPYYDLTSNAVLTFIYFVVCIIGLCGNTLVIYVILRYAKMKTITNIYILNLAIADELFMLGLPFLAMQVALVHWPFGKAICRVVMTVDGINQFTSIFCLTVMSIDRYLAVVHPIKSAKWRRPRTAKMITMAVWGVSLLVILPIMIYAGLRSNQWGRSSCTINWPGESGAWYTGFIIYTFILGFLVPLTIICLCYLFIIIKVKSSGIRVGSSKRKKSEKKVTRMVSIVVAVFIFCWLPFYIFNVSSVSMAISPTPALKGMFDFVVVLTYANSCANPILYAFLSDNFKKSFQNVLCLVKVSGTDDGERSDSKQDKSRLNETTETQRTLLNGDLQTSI

DOTA-Cpa-cyclo[DCys-Pal-DAph(Cbm)-Lys-Thr-Cys]DTyr-NH2
uptake in HEK293-SSR2 tumour cells: without quantifiable uptake
